The source of these data is patent US6977262B2, “Dihydropyrazolopyridine compounds and pharmaceutical use thereof” (Mitsubishi Pharma Corporation, priority 2001, dated 2005).

In turn, `CCCC1=C(C#N)C(c2ccccc2Cl)c2c(n[nH]c2CC)N1` (centres unmarked) [Example 309, 4-(2-Chlorophenyl)-5-cyano-4,7-dihydro-3-ethyl-6-propyl-2H-pyrazolo[3,4-b]pyridine] had a melting point of 269 °C.
To `CCCC1=C(C#N)C(c2ccccc2Cl)c2c(n[nH]c2C(C)(C)C)N1` (centres unmarked) [Example 310, 3-t-Butyl-4-(2-chlorophenyl)-5-cyano-4,7-dihydro-6-propyl-2H-pyrazolo[3,4-b]pyridine] belongs greater than 270 °C; to `CCCC1=C(C#N)C(c2ccccc2Cl)c2c(n[nH]c2C2CCCCC2)N1` (centres unmarked) [Example 311, 4-(2-Chlorophenyl)-5-cyano-3-cyclohexyl-4,7-dihydro-6-propyl-2H-pyrazolo[3,4-b]pyridine], greater than 270 °C; to `N#CC1=C(C2CCCCCC2)Nc2n[nH]cc2C1c1ccccc1Cl` (centres unmarked) [Example 312, 4-(2-Chlorophenyl)-5-cyano-6-cycloheptyl-4,7-dihydro-2H-pyrazolo[3,4-b]pyridine], 146 °C.
To `N#CC1=C(C2CCC2)Nc2n[nH]cc2C1c1ccccc1Cl` (centres unmarked) [Example 313, 4-(2-Chlorophenyl)-5-cyano-6-cyclobutyl-4,7-dihydro-2H-pyrazolo[3,4-b]pyridine] belongs 188 °C; to `CCCC1=C(C#N)C(c2ccccc2Cl)c2c(n[nH]c2C2CCCC2)N1` (centres unmarked) [Example 314, 4-(2-Chlorophenyl)-5-cyano-3-cyclopentyl-4,7-dihydro-6-propyl-2H-pyrazolo[3,4-b]pyridine], greater than 270 °C.
Then `CCCC1=C(C#N)C(c2ccccc2Cl)c2c(n[nH]c2C(C)C)N1` (centres unmarked) [Example 315, 4-(2-Chlorophenyl)-5-cyano-4,7-dihydro-6-propyl-3-isopropyl-2H-pyrazolo[3,4-b]pyridine], with greater than 270 °C.
Compound `N#CC1=C(C2CCCC2)Nc2n[nH]cc2C1c1ccccc1Cl` (centres unmarked) [Example 316, 4-(2-Chlorophenyl)-5-cyano-6-cyclopentyl-4,7-dihydro-2H-pyrazolo[3,4-b]pyridine] had a melting point of 225 °C.
On to `N#CC1=C(C2CCCC2)Nc2n[nH]cc2C1c1cccc(C#N)c1Br` (centres unmarked) [Example 317, 4-(2-Bromo-3-cyanophenyl)-5-cyano-6-cyclopentyl-4,7-dihydro-2H-pyrazolo[3,4-b]pyridine], for which the melting point came to 247 °C.
To `N#CC1=C(C2CCCC2)Nc2n[nH]cc2C1c1cccc2nonc12` (centres unmarked) [Example 318, 4-(2,1,3-Benzoxadiazol-4-yl)-5-cyano-6-cyclopentyl-4,7-dihydro-2H-pyrazolo[3,4-b]pyridine] belongs 193 °C; to `CC(C)(C)C1=C(C#N)C(c2cccc(C#N)c2Br)c2c[nH]nc2N1` (centres unmarked) [Example 319, 4-(2-Bromo-3-cyanophenyl)-6-t-butyl-5-cyano-4,7-dihydro-2H-pyrazolo[3,4-b]pyridine], 251 °C.
To `CC(C)(C)C1=C(C#N)C(c2cccc3nonc23)c2c[nH]nc2N1` (centres unmarked) [Example 320, 4-(2,1,3-Benzoxadiazol-4-yl)-6-t-butyl-5-cyano-4,7-dihydro-2H-pyrazolo[3,4-b]pyridine] belongs 204 °C; to `N#CC1=C(C2CCC2)Nc2n[nH]cc2C1c1cccc(C#N)c1Br` (centres unmarked) [Example 321, 4-(2-Bromo-3-cyanophenyl)-5-cyano-6-cyclobutyl-4,7-dihydro-2H-pyrazolo[3,4-b]pyridine], 278 °C.
To `N#CC1=C(C2CCC2)Nc2n[nH]cc2C1c1cccc2nonc12` (centres unmarked) [Example 322, 4-(2,1,3-Benzoxadiazol-4-yl)-5-cyano-6-cyclobutyl-4,7-dihydro-2H-pyrazolo[3,4-b]pyridine] belongs 194 °C; to `N#CC1=C(C2CCCCC2)Nc2n[nH]cc2C1c1cccc2nonc12` (centres unmarked) [Example 323, 4-(2,1,3-Benzoxadiazol-4-yl)-5-cyano-6-cyclohexyl-4,7-dihydro-2H-pyrazolo[3,4-b]pyridine], 210 °C; to `N#CC1=C(C2CCCCCC2)Nc2n[nH]cc2C1c1cccc2nonc12` (centres unmarked) [Example 324, 4-(2,1,3-Benzoxadiazol-4-yl)-5-cyano-6-cycloheptyl-4,7-dihydro-2H-pyrazolo[3,4-b]pyridine], 228 °C.
The compound `N#CC1=C(C2CCCCC2)Nc2n[nH]cc2C1c1cccc(C#N)c1Br` (centres unmarked) [Example 325, 4-(2-Bromo-3-cyanophenyl)-5-cyano-6-cyclohexyl-4,7-dihydro-2H-pyrazolo[3,4-b]pyridine] had a melting point of 193 °C.
As to `N#CC1=C(C2CCCCCC2)Nc2n[nH]cc2C1c1cccc(C#N)c1Br` (centres unmarked) [Example 326, 4-(2-Bromo-3-cyanophenyl)-5-cyano-6-cycloheptyl-4,7-dihydro-2H-pyrazolo[3,4-b]pyridine], the melting point is 252 °C.
Compound `CCCC1=C(C#N)C(c2cccnc2)c2c[nH]nc2N1` (centres unmarked) [Example 327, 5-Cyano-4,7-dihydro-6-propyl-4-(pyridin-3-yl)-2H-pyrazolo[3,4-b]pyridine] returned a melting point of 201 °C.
To `CCCC1=C(C#N)C(c2ccccc2Cl)c2c(OC(=O)OC(C)(C)C)n[nH]c2N1` (centres unmarked) [Example 328, 3-t-Butoxycarbonyloxy-4-(2-chlorophenyl)-5-cyano-4,7-dihydro-6-propyl-1 H-pyrazolo[3,4-b]pyridine] belongs 182 °C.
Compound `COC(CC1=C(C#N)C(c2cccc3nonc23)c2c[nH]nc2N1)OC` (centres unmarked) [Example 329, 4-(2,1,3-Benzoxadiazol-4-yl)-5-cyano-6-(2,2-dimethoxyethyl)-4,7-dihydro-2H-pyrazolo[3,4-b]pyridine] had a melting point of 115 °C.
Then `CCCC1=C(C#N)C(c2ccccc2Cl)c2c(n[nH]c2CC(OC)OC)N1` (centres unmarked) [Example 330, 4-(2-Chlorophenyl)-5-cyano-4,7-dihydro-3-(2,2-dimethoxyethyl)-6-propyl-2H-pyrazolo[3,4-b]pyridine], with 180 °C; and `CCCC1=C(C#N)C(c2cccc3nocc23)c2c[nH]nc2N1` (centres unmarked) [Example 331, 4-(2,1-Benzoisoxazol-4-yl)-5-cyano-4,7-dihydro-6-propyl-2H-pyrazolo[3,4-b]pyridine], with 239 °C; and `CC(C)C1=C(C#N)C(c2cccc3nocc23)c2c[nH]nc2N1` (centres unmarked) [Example 332, 4-(2,1-Benzoisoxazol-4-yl)-5-cyano-4,7-dihydro-6-isopropyl-2H-pyrazolo[3,4-b]pyridine], with 245 °C.
Regarding `N#CC1=C(C2CC2)Nc2n[nH]cc2C1c1cccc2nocc12` (centres unmarked) [Example 333, 4-(2,1-Benzoisoxazol-4-yl)-5-cyano-6-cyclopropyl-4,7-dihydro-2H-pyrazolo[3,4-b]pyridine], the melting point worked out at 248 °C.
`CC(C)(C)OC(=O)n1cc(C2=C(C#N)C(c3cccc4nonc34)c3c[nH]nc3N2)c2ccccc21` (centres unmarked) [Example 334, 4-(2,1,3-Benzoxadiazol-4-yl)-5-cyano-6-(1-t-butoxycarbonylindol-3-yl)-4,7-dihydro-2H-pyrazolo[3,4-b]pyridine] showed a melting point of 202 °C.
Regarding `N#CC1=C(c2c[nH]c3ccccc23)Nc2n[nH]cc2C1c1cccc2nonc12` (centres unmarked) [Example 335, 4-(2,1,3-Benzoxadiazol-4-yl)-5-cyano-4,7-dihydro-6-(indol-3-yl)-2H-pyrazolo[3,4-b]pyridine], the melting point was 238 °C.
To `CCCC1=C(C#N)C(c2ccccc2Cl)c2c(n[nH]c2C(OC)OC)N1` (centres unmarked) [Example 336, 4-(2-Chlorophenyl)-5-cyano-4,7-dihydro-3-dimethoxymethyl-6-propyl-2H-pyrazolo[3,4-b]pyridine] belongs 212 °C; to `CCCC1=C(C#N)C(c2ccncc2)c2c[nH]nc2N1` (centres unmarked) [Example 337, 5-Cyano-4,7-dihydro-6-propyl-4-(pyridin-4-yl)-2H-pyrazolo[3,4-b]pyridine], 224 °C.
To `CCCC1=C(C#N)C(c2cccc(C)c2[N+](=O)[O-])c2c[nH]nc2N1` (centres unmarked) [Example 338, 5-Cyano-4,7-dihydro-4-(3-methyl-2-nitrophenyl)-6-propyl-2H-pyrazolo[3,4-b]pyridine] belongs 250 °C; to `Cc1cccc(C2C(C#N)=C(C(C)C)Nc3n[nH]cc32)c1[N+](=O)[O-]` (centres unmarked) [Example 339, 5-Cyano-4,7-dihydro-4-(3-methyl-2-nitrophenyl)-6-isopropyl-2H-pyrazolo[3,4-b]pyridine], 261 °C; to `Cc1cccc(C2C(C#N)=C(C3CC3)Nc3n[nH]cc32)c1[N+](=O)[O-]` (centres unmarked) [Example 340, 5-Cyano-6-cyclopropyl-4,7-dihydro-4-(3-methyl-2-nitrophenyl)-2H-pyrazolo[3,4-b]pyridine], 265 °C.
To `CCCC1=C(C#N)C(c2ccccc2Cl)c2c[nH]nc2N1C` (centres unmarked) [Example 346, 4-(2-Chlorophenyl)-5-cyano-7-methyl-6-propyl-4,7-dihydro-2H-pyrazolo[3,4-b]pyridine] belongs 170 to 171 °C; to `CCCC1=C(C#N)C(c2cccc(C#N)c2Br)c2c[nH]nc2N1C` (centres unmarked) [Example 348, 4-(2-Bromo-3-cyanophenyl)-5-cyano-7-methyl-6-propyl-4,7-dihydro-2H-pyrazolo[3,4-b]pyridine], 218 to 220 °C; to `C=CCCC(=O)n1ncc2c1NC(CCC)=C(C#N)C2c1ccccc1Cl` (centres unmarked) [Example 357, 4-(2-Chlorophenyl)-5-cyano-4,7-dihydro-1-(4-pentenoyl)-6-propyl-1H-pyrazolo[3,4-b]pyridine], 140 °C.
As for `C=CCCC(=O)n1cc2c(n1)NC(CCC)=C(C#N)C2c1ccccc1Cl` (centres unmarked) [Example 358, 4-(2-Chlorophenyl)-5-cyano-4,7-dihydro-2-(4-pentenoyl)-6-propyl-2H-pyrazolo[3,4-b]pyridine], the melting point lay within 176 to 177 °C.
Then `CCCC1=C(C#N)C(c2cccc(C)n2)c2c[nH]nc2N1` (centres unmarked) [Example 359, 5-Cyano-4,7-dihydro-4-(6-methylpyridin-2-yl)-6-propyl-2H-pyrazolo[3,4-b]pyridine], with 177 to 181 °C; and `CCCC1=C(C#N)C(c2cccc(Br)c2)c2c[nH]nc2N1` (centres unmarked) [Example 362, 4-(3-Bromophenyl)-5-cyano-4,7-dihydro-6-propyl-2H-pyrazolo[3,4-b]pyridine], with 202 to 205 °C.

One may read the melting point as the temperature, or range, at which the solid turns liquid.
